Source: patent US12612403B2, “Nitrogen-containing heterocyclic derivative inhibitor, and preparation method therefor and use thereof” (SHANGHAI HANSOH BIOMEDICAL CO., LTD., priority 2024, dated 2026)

How the values were obtained:
[1] = Pharmacokinetic determination in mice (PO 5 mg/kg, IV 1 mg/kg); assay type: in vivo, C57BL/6J mice; settings: male, C57BL/6J, mouse, plasma, C57 mice, PO administration, 5 mpk; for AUC(0-inf): read-out: Area under the curve AUC0-∞; for half-life: read-out: Half-life t1/2 (converted); for MRT: read-out: Mean residence time MRT; for Cmax: read-out: Plasma concentration Cmax; for Tmax: read-out: Time to peak tmax
Outline: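 Fasted male C57BL/6J mice (n=3 per route) dosed PO 5 mg/kg in 10% Solutol HS15 or IV 1 mg/kg in 5% DMSO/10% Solutol HS15/85% PBS. Orbital blood sampled 0.083 (IV) to 24 h; plasma measured by LC-MS/MS, parameters by WinNonlin.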

[2] = test system: hyperlipidemia animal model of B6-hPCSK9 transgenic mice; experiment: In vivo pharmacodynamic study in hyperlipidemia model of B6-hPCSK9 transgenic mice (LDL-C, TC, plasma PCSK9); parameters: species or system B6-hPCSK9 transgenic C57 mice; settings: PO administration, Day 14, B6-hPCSK9 transgenic mice on high-fat feed, normalized to vehicle group
Protocol: 1. Experimental objective: The compounds of the present disclosure were evaluated for in vivo pharmacodynamics in a hyperlipidemia animal model of B6-hPCSK9 transgenic mice.
2.1 Animals: B6-hPCSK9 transgenic C57 mice, 6-8 weeks old, male, purchased from Jiangsu GemPharmatech Co., Ltd.
2.2 Animal model: After delivery to a barrier system, the animals were given one week for acclimatization and began to feed on the high-fat feed. The body weight and feed weight were weighed once a week, and the body weight and food intake thereof were recorded.
2.3 Grouping and administration • a. The animals were grouped by a random grouping method. • c. According to the grouping results, administration with the test drug was started (mode of administration: oral administration; administration volume: 10 mL/kg; frequency of administration: once/day or single administration; administration cycle: 21 days; vehicle: 10% Solutol HS 15/90% Saline). Test drug: Compounds of the present disclosure, made in house. • d. After the test drug was administered, the body weight and feed weight were weighed twice a week and blood was taken once a week. • e. The data was processed with software such as Excel. […] PCSK9 in plasma was detected by ELISA.

PCSK9 protein = biological target: T1, PCSK9 protein (Homo sapiens, UniProt Q8NBP7); experiment: Binding ability to PCSK9 protein (HTRF); settings: PCSK9-His, Alexa Fluor 647 probe compound
T1 construct: purchased Sino biology (Sino Biological) 29698-H08H
T1 sequence (Q8NBP7 153-692): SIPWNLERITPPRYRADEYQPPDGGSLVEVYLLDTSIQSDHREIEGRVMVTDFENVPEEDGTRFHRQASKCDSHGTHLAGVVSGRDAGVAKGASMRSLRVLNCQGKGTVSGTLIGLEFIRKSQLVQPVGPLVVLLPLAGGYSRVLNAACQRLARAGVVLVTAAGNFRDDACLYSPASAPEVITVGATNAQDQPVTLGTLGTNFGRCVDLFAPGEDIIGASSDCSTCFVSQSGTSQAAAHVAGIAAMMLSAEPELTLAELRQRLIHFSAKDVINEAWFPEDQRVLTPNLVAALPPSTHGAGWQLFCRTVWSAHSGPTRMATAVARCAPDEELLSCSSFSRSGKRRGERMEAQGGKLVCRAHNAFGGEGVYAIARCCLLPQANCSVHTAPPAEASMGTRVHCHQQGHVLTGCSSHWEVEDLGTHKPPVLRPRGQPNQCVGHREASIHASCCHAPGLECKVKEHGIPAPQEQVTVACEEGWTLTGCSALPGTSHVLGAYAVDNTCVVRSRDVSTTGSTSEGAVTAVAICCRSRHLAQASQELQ
Protocol: 1. Experimental objective: To detect the action of compounds to bind PCSK9 protein by an HTRF method.
3. Experimental data processing method: Four-parameter log(inhibitor) vs. response—Variable slope (four parameters) in XLit was used to perform non-linear fitting of the compound concentration and the corresponding inhibition rate, and IC50 was calculated.

[3] = In vitro metabolic stability in human liver microsomes; assay type: in vitro ADME; settings: pH 7.4
Protocol: 1. Experimental objective: The purpose of this experiment was to evaluate the metabolic stability of the compounds in phase I and partially phase II in mouse, rat and human liver microsomes, respectively.
2.1 Drug preparation: 10 mM stock solution of the compound of the present disclosure was prepared in DMSO (or other suitable solution) and stored in a −20° C. refrigerator for later use. The compound of the present disclosure was made in house.
2.2 Experimental steps • 1) Preparation of buffer: 4.01 mL of 1 M K2HPO4·3H2O (AR grade) and 0.99 mL of 1 M KH2PO4 (AR grade) were dissolved in ultrapure water and the volume was adjusted to 50 mL to prepare a phosphate buffer with a final concentration of 100 mM. • 2) Preparation of compound working solution: Preparation of compound working solution: 2 μL of the compound stock solution was added to 998 μL of phosphate buffer to a final concentration of 20 μM. According to the properties of the compound, the preparation proportions could be adjusted appropriately to adjust the final concentration. • 3) Preparation of liver microsome working solution: 156.3 μL of 20 mg/mL microsomes were diluted to 5 mL with 100 mM phosphate buffer, and the mixture was mixed well to reach a final concentration of 0.625 mg/mL. • 4) Preparation of NADPH and UDPGA: 33.3 mg of NADPH and 25.8 mg of UDPGA were weighed and added to 2 mL of 100 mM phosphate buffer to reach a final concentration of 20 mM. • 5) Preparation of pore-forming agent (Alamethicin): 1 mg of Alamethicin was weighed and added to 200 μL of methanol to prepare a 5 mg/mL solution. 10 μL of the solution was taken and added to 990 μL phosphate buffer (pH 7.4) to reach a final concentration of 50 μg/mL. • 6) Preparation of reaction stop solution: The internal standard was diluted with acetonitrile (or other suitable solution) to use as a stop solution and stored in a 2° C.-8° C. refrigerator. • 7) Incubation process: 400 μL of the prepared liver microsomes, 25 μL of the compound working solution (20 μM) and 25 μL of Alamethicin (50 μg/mL) were successively added to the 96-well plate, and the mixture was pre-incubated at 37° C. for 10 min. Then, 50 μL of prepared NADPH/UDPGA was added to start the reaction, and the mixture was incubated at 37° C. The total volume of the reaction system was 500 μL. The final contents of each component were as follows:
50 μL of samples were taken at 0, 5, 15, 30, 60 and 120 min, respectively, 200 μL of a cold stop solution containing the internal standard was added to stop the sample reaction, the mixture was centrifuged at 3500 rpm for 10 min, and the supernatant was taken and analyzed by LC-MS/MS.
Instruments: Shimadzu LC-20 AD; Chromatographic column: Phenomenex Gamin® C18 (50*4.6 mm, 5 μm particle size); mobile phase: A: 0.1% aqueous formic acid, B: acetonitrile; Elution gradient: 0.2-1.6 min, […], 3.0-3.1 min, 95% A to 5% A; Flow rate: 1.0 ml/min; Run time: 4.0 min; Injection volume: 5 μL.
Instruments: AP14000 liquid chromatography mass spectrometer, AB Sciex; Ion source: electrospray ionization source (ESI); Drying gas: N2, temperature 500° C.; Electrospray voltage: 5000 V; Detection mode: positive ion detection; Scanning mode: Reaction Monitoring (MRM) mode; Scanning time: 0.8401 s.
3. Data processing: The raw data were calculated according to the following formula: […]
The in vitro liver microsome intrinsic clearance rate (CLint) and liver intrinsic clearance rate (CLint,liver) were calculated by Ke.

[4] = test system: PCSK9 secreted by HepG2 cells; experiment: Effect on the concentration of PCSK9 secreted by HepG2 cells (ELISA); assay type: cell-based; settings: Homo sapiens, 48 hours, PCSK9 in culture medium by ELISA
Outline: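 HepG2 cells treated with compound for 48 h at 37° C., 5% CO2. Secreted PCSK9 in medium quantified by sandwich ELISA (HRP detection, OD 450 nm) against a 0–10 ng/mL standard curve. Inhibition relative to control; IC50 fitted from concentration–inhibition data.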

**Q.** Which AUC(0-inf) [1] does the source give for `O=C1c2cccnc2CN1c1ccc(N[C@H]2CC[C@H](Nc3nc4cc(C(F)(F)F)ccn4n3)C2)nc1` [Example 12, 6-(6-(((1S,3S)-3-((7-(trifluoromethyl)-[1,2,4]triazolo[1,5-a]pyridin-2-yl)amino)cyclopentyl)amino)pyridin-3-yl)-6,7-dihydro-5H-pyrrolo[3,4-b]pyridin-5-one] here?
**A.** 9510 ng·h/mL

**Q.** What about the half-life [1] of the same compound?
**A.** 2.9 h

**Q.** What about the MRT [1] of the same compound?
**A.** 2.8 h

**Q.** And the Cmax [1]?
**A.** 4310 ng/mL

**Q.** What about the Tmax [1] of the same compound?
**A.** 0.25 h

**Q.** What about the “LDL-C change vs vehicle (%), Day 14” value ([2]; 10 mpk) of the same compound?
**A.** −33.75%

**Q.** Which results are given for `O=c1nc(O)c(F)cn1-c1ccc(N[C@H]2CC[C@H](Nc3nc4cc(C(F)(F)F)ccn4n3)C2)nc1` [Example 110]?
**A.** IC50 (PCSK9 protein): 18.7 nM; AUC(0-inf) [1]: 11300 ng·h/mL; half-life [1]: 3 h; MRT [1]: 2.6 h; Cmax [1]: 2920 ng/mL; Tmax [1]: 1 h; half-life at 1 µM [3]: 78.7 h; microsomal CLint at 1 µM [3]: 0.3 µL/min/mg

**Q.** With `O=C1c2ncccc2CN1c1cnc(N[C@H]2CC[C@H](Nc3nc4cc(C(F)(F)F)ccn4n3)C2)c(F)c1` [Example 112, 6-(5-fluoro-6-(((1S,3S)-3-((7-(trifluoromethyl)-[1,2,4]triazolo[1,5-a]pyridin-2-yl)amino)cyclopentyl)amino)pyridin-3-yl)-5,6-dihydro-7H-pyrrolo[3,4-b]pyridin-7-one] as the compound, how does the IC50 (PCSK9 protein) read?
**A.** 8.3 nM

**Q.** What about the IC50 [4] of the same compound?
**A.** 6900 nM

**Q.** And the AUC(0-inf) [1]?
**A.** 33800 ng·h/mL

**Q.** What about the half-life [1] of the same compound?
**A.** 2.2 h

**Q.** And the MRT [1]?
**A.** 4.7 h

**Q.** And the Cmax [1]?
**A.** 5070 ng/mL

**Q.** And the Tmax [1]?
**A.** 1 h

**Q.** And the “LDL-C change vs vehicle (%), Day 14” value ([2]; 10 mpk)?
**A.** −38.14%

**Q.** With `O=C1c2ncc(F)cc2CN1c1cnc(N[C@H]2CC[C@H](Nc3nc4cc(C(F)(F)F)ccn4n3)C2)c(F)c1` [Example 145] as the compound, how does the IC50 (PCSK9 protein) read?
**A.** 10.6 nM

**Q.** What about the IC50 [4] of the same compound?
**A.** 2900 nM

**Q.** What about the AUC(0-inf) [1] of the same compound?
**A.** 22600 ng·h/mL

**Q.** And the half-life [1]?
**A.** 3.3 h

**Q.** What about the MRT [1] of the same compound?
**A.** 3.1 h

**Q.** What about the Cmax [1] of the same compound?
**A.** 6310 ng/mL

**Q.** And the Tmax [1]?
**A.** 1 h

**Q.** Which results are given for `O=C1c2ncc(F)cc2CN1c1cnc(N[C@H]2CC[C@H](Nc3nc4cc(OC(F)F)ccn4n3)C2)c(F)c1` [Example 154]?
**A.** IC50 [4]: 5500 nM; AUC(0-inf) [1]: 13300 ng·h/mL; half-life [1]: 2.5 h; MRT [1]: 3.7 h; Cmax [1]: 2640 ng/mL; Tmax [1]: 1 h; LDL-C change vs vehicle (%), Day 14 ([2]; 10 mpk): −35.66%

**Q.** For `O=C1c2ccc(C(F)(F)F)nc2CN1c1cnc(N[C@H]2CC[C@H](Nc3nc4cc(OC(F)F)ccn4n3)C2)c(F)c1` [Example 159], which IC50 (PCSK9 protein) is on record?
**A.** 16.8 nM

**Q.** And the AUC(0-inf) [1]?
**A.** 76800 ng·h/mL

**Q.** What about the half-life [1] of the same compound?
**A.** 9.8 h

**Q.** And the MRT [1]?
**A.** 10.7 h

**Q.** And the Cmax [1]?
**A.** 7660 ng/mL

**Q.** What about the Tmax [1] of the same compound?
**A.** 2 h

**Q.** What about the half-life at 1 µM [3] of the same compound?
**A.** 20.1 h

**Q.** What about the microsomal CLint at 1 µM [3] of the same compound?
**A.** 1.15 µL/min/mg

**Q.** Which IC50 (PCSK9 protein) does the source give for `O=C1c2ncccc2CN1c1cnc(N[C@H]2CC[C@H](Nc3nc4cc(F)ccn4n3)C2)c(F)c1` [Example 164] here?
**A.** 7.2 nM

**Q.** What about the half-life at 1 µM [3] of the same compound?
**A.** 15.6 h

**Q.** And the microsomal CLint at 1 µM [3]?
**A.** 1.48 µL/min/mg

**Q.** With `O=c1ccccn1-c1cnc(N[C@H]2CC[C@H](Nc3nc4cc(F)ccn4n3)C2)c(F)c1` [Example 186, 5′-fluoro-6′-(((1S,3S)-3-((7-fluoro-[1,2,4]triazolo[1,5-a]pyridin-2-yl)amino)cyclopentyl)amino)-2H-[1,3′-bipyridine]-2-one] as the compound, how does the IC50 (PCSK9 protein) read?
**A.** 8.5 nM

**Q.** And the half-life at 1 µM [3]?
**A.** 35.4 h

**Q.** What about the microsomal CLint at 1 µM [3] of the same compound?
**A.** 0.7 µL/min/mg

**Q.** What about the “LDL-C change vs vehicle (%), Day 14” value ([2]; 10 mpk) of the same compound?
**A.** −51.19%

**Q.** With `O=c1nc(O)ccn1-c1cnc(N[C@H]2CC[C@H](Nc3nc4cc(F)ccn4n3)C2)c(F)c1` [Example 188] as the compound, how does the half-life at 1 µM [3] read?
**A.** 12.6 h

**Q.** And the microsomal CLint at 1 µM [3]?
**A.** 1.8 µL/min/mg

**Q.** And the “LDL-C change vs vehicle (%), Day 14” value ([2]; 10 mpk)?
**A.** −47.11%

**Q.** For `O=C1c2ccnn2CCN1c1cnc(N[C@H]2CC[C@H](Nc3nc4cc(F)ccn4n3)C2)c(F)c1` [Example 201], which “LDL-C change vs vehicle (%), Day 14” value ([2]; 10 mpk) is on record?
**A.** −31.45%

**Q.** Which “LDL-C change vs vehicle (%), Day 14” value ([2]; 10 mpk) does the source give for `O=C1c2ccnn2CCN1c1cnc(N[C@H]2CC[C@H](Nc3nc4cc(C(F)(F)F)ccn4n3)C2)c(F)c1` [Example 212] here?
**A.** −60.08%

**Q.** With `O=c1ccccn1-c1ccc(N[C@H]2CC[C@H](Nc3nc4cc(F)ccn4n3)C2)nc1` [compound 1, 6′-(((1S,3S)-3-((7-fluoro-[1,2,4]triazolo[1,5-a]pyridin-2-yl)amino)cyclopentyl)amino)-2H-[1,3′-bipyridine]-2-one, reference compound] as the compound, how does the “LDL-C change vs vehicle (%), Day 14” value ([2]; 6 mpk) read?
**A.** −31.52%
